Where “and” joins values, the source holds several entries; their conditions need not be identical. Equal entries are not always repeated.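 Five concentrations, 48 hours, 96-well plates. At the GI50, growth is halved. TGI: concentration producing complete growth inhibition.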
Key:
Assay in all cases: NCI anticancer screen, dose series, 48 h
[1] = test system: 786-0 renal
[2] = test system: A498 renal
[3] = test system: A549 NSCLC
[4] = test system: ACHN renal
[5] = test system: CAKI-1 renal
[6] = test system: CCRF-CEM leukemia
[7] = test system: COLO 205 colon
[8] = test system: DMS 114 small cell lung
[9] = test system: DMS 273 small cell lung
[10] = test system: EKVX NSCLC
[11] = test system: HCC-2998 colon
[12] = test system: HCT-116 colon
[13] = test system: HCT-15 colon
[14] = test system: HL-60(TB) leukemia
[15] = test system: HOP-18 NSCLC
[16] = test system: HOP-62 NSCLC
[17] = test system: HOP-92 NSCLC
[18] = test system: HT29 colon
[19] = test system: IGROV1 ovarian
[20] = test system: K-562 leukemia
[21] = test system: KM12 colon
[22] = test system: KM20L2 colon
[23] = test system: LOX IMVI melanoma
[24] = test system: LXFL 529 NSCLC
[25] = test system: M14 melanoma
[26] = test system: M19-MEL melanoma
[27] = test system: MALME-3M melanoma
[28] = test system: MOLT-4 leukemia
[29] = test system: NCI-H226 lung
[30] = test system: NCI-H23 lung
[31] = test system: NCI-H460 lung
[32] = test system: NCI-H522 lung
[33] = test system: OVCAR-3 ovarian
[34] = test system: OVCAR-4 ovarian
[35] = test system: OVCAR-5 ovarian
[36] = test system: OVCAR-8 ovarian
[37] = test system: RPMI-8226 leukemia
[38] = test system: RXF 393 renal
[39] = test system: SF-268 CNS
[40] = test system: SF-295 CNS
[41] = test system: SF-539 CNS
[42] = test system: SK-MEL-2 melanoma
[43] = test system: SK-MEL-28 melanoma
[44] = test system: SK-MEL-5 melanoma
[45] = test system: SK-OV-3 ovarian
[46] = test system: SN12C renal
[47] = test system: SNB-19 CNS
[48] = test system: SNB-78 CNS
[49] = test system: SR leukemia
[50] = test system: SW-620 colon
[51] = test system: TK-10 renal
[52] = test system: U251 CNS
[53] = test system: UACC-257 melanoma
[54] = test system: UACC-62 melanoma
[55] = test system: UO-31 renal
[56] = test system: DLD-1 colon
[57] = test system: XF 498 CNS
[58] = test system: SNB-75 CNS

COC(=O)C(CC(=O)Nc1ccc(Cl)c(Cl)c1)C(=O)C(=O)NC1C2CC3CC(C2)CC1C3 (stereo not given)
TGI [1]: > 100 µM | TGI [2]: > 100 µM | TGI [3]: > 100 µM | TGI [4]: > 100 µM | TGI [5]: > 100 µM | TGI [6]: > 100 µM | TGI [7]: > 100 µM | TGI [8]: > 100 µM | TGI [9]: > 100 µM | TGI [10]: > 100 µM | TGI [11]: > 100 µM | TGI [12]: > 100 µM | TGI [13]: > 100 µM | TGI [14]: > 100 µM | TGI [15]: > 100 µM | TGI [16]: > 100 µM | TGI [17]: > 100 µM | TGI [18]: > 100 µM | TGI [19]: > 100 µM | TGI [20]: > 100 µM | TGI [21]: > 100 µM | TGI [22]: > 100 µM | TGI [23]: > 100 µM | TGI [24]: > 100 µM | TGI [25]: > 100 µM | TGI [26]: > 100 µM | TGI [27]: > 100 µM | TGI [28]: > 100 µM | TGI [29]: > 100 µM | TGI [30]: > 100 µM | TGI [31]: > 100 µM | TGI [32]: > 100 µM | TGI [33]: > 100 µM | TGI [34]: > 100 µM | TGI [35]: > 100 µM | TGI [36]: > 100 µM | TGI [37]: > 100 µM | TGI [38]: > 100 µM | TGI [39]: > 100 µM | TGI [40]: > 100 µM | TGI [41]: > 100 µM | TGI [42]: > 100 µM | TGI [43]: > 100 µM | TGI [44]: > 100 µM | TGI [45]: > 100 µM | TGI [46]: > 100 µM | TGI [47]: > 100 µM | TGI [48]: > 100 µM | TGI [49]: > 100 µM | TGI [50]: > 100 µM | TGI [51]: > 100 µM | TGI [52]: > 100 µM | TGI [53]: > 100 µM | TGI [54]: > 100 µM | TGI [55]: > 100 µM

O=C(N/C(=C\c1ccc(Oc2ccc(Cl)c(Cl)c2)cc1)c1nc2ccccc2[nH]1)c1ccccc1
TGI [1]: 33 µM | TGI [3]: 54.4 µM | TGI [4]: 50.9 µM | TGI [5]: 47.9 µM | TGI [6]: 88.5 µM | TGI [7]: 58 µM | TGI [56]: 42.9 µM | TGI [9]: 53.9 µM | TGI [10]: 50.5 µM | TGI [11]: 31.7 µM | TGI [13]: 66.6 µM | TGI [17]: 23.5 µM | TGI [18]: 32.6 µM | TGI [20]: 59.6 µM | TGI [21]: 30.4 µM | TGI [22]: 37.2 µM | TGI [24]: 32.3 µM | TGI [25]: 34.8 µM | TGI [26]: 94 µM | TGI [27]: 43.8 µM | TGI [28]: 93.4 µM | TGI [30]: 27.7 µM | TGI [32]: 35.5 µM | TGI [33]: 41 µM | TGI [34]: 54.2 µM | TGI [35]: 67.9 µM | TGI [36]: 28.6 µM | TGI [38]: 28.1 µM | TGI [39]: 37.1 µM | TGI [40]: 29 µM | TGI [41]: 32.7 µM | TGI [42]: 37.7 µM | TGI [43]: 35.1 µM | TGI [44]: 30.4 µM | TGI [45]: 79.2 µM | TGI [46]: 35.5 µM | TGI [47]: 36.3 µM | TGI [48]: 54.8 µM | TGI [49]: 85 µM | TGI [50]: 33.7 µM | TGI [51]: 57.7 µM | TGI [52]: 27.4 µM | TGI [54]: 33.5 µM | TGI [55]: 27.6 µM | TGI [57]: 34.6 µM

COc1cc(C2c3cc4c(cc3[C@@H](NCCCN(C)C)[C@H]3COC(=O)C23)OCO4)cc(OC)c1O (stereo not given in full)
GI50 [2]: 0.0838 µM and 0.19 µM | TGI [2]: 0.327 µM and 0.696 µM | GI50 [3]: 0.03 µM | TGI [3]: 0.712 µM | TGI [4]: 0.369 µM and 0.496 µM | GI50 [5]: 0.0599 µM and 0.227 µM | TGI [5]: 0.351 µM and 0.952 µM | GI50 [7]: 0.714 µM and 1.94 µM | TGI [7]: 3.93 µM and 5.78 µM | GI50 [56]: 1.03 µM and 3.78 µM | TGI [56]: 4.01 µM and > 20 µM | TGI [9]: 2.06 µM and 2.61 µM | TGI [10]: 1.58 µM and 1.29 µM | TGI [11]: 1.48 µM and 1.35 µM | TGI [12]: 6.14 µM | TGI [13]: 1.69 µM and 4.63 µM | TGI [14]: 0.231 µM and 0.245 µM | GI50 [15]: 3.78 µM and 1.18 µM | TGI [15]: > 37.5 µM and 16.3 µM | GI50 [16]: 0.0933 µM and 0.271 µM | TGI [16]: 0.297 µM and 0.925 µM | GI50 [17]: 0.0952 µM and 0.482 µM | TGI [17]: 0.368 µM and 1.85 µM | TGI [18]: > 37.5 µM and 6.09 µM | TGI [19]: 2.03 µM and 4.03 µM | GI50 [20]: 0.831 µM and 0.413 µM | TGI [20]: > 37.5 µM and 7.84 µM | TGI [21]: 2.26 µM and 3.61 µM | TGI [22]: 2.44 µM and 4.44 µM | TGI [23]: 0.927 µM and 2.11 µM | TGI [24]: 25.7 µM and > 20 µM | TGI [26]: 2.17 µM and 3.35 µM | TGI [27]: 1.07 µM and 1.44 µM | TGI [28]: 0.21 µM | GI50 [30]: 0.139 µM and 0.291 µM | TGI [30]: 0.759 µM and 1.56 µM | TGI [31]: 0.632 µM and 0.336 µM | TGI [32]: 1.65 µM and 2.47 µM | TGI [33]: 1.79 µM and 3.76 µM | TGI [35]: 2.59 µM and 5.52 µM | GI50 [36]: 0.333 µM and 1.26 µM | TGI [36]: 1.2 µM and 5.09 µM | TGI [37]: > 37.5 µM and 5.49 µM | GI50 [39]: 0.202 µM and 0.591 µM | TGI [39]: 1.51 µM and 7.28 µM | TGI [40]: 0.632 µM and 1.42 µM | TGI [41]: 1.05 µM and 0.981 µM | GI50 [42]: 0.733 µM and 1.96 µM | TGI [42]: 1.46 µM and 5.09 µM | GI50 [43]: 0.764 µM and 2.76 µM | TGI [43]: 2.09 µM and 8.62 µM | TGI [44]: 0.825 µM and 1.15 µM | TGI [45]: 1.26 µM and 1.2 µM | GI50 [46]: 0.117 µM and 0.333 µM | TGI [46]: 0.502 µM and 1.14 µM | TGI [47]: 1.45 µM and 1.91 µM | GI50 [58]: 0.393 µM and 0.838 µM | TGI [58]: 4.21 µM and 6.84 µM | GI50 [48]: 2.6 µM and 11.6 µM | TGI [48]: > 37.5 µM | GI50 [49]: 0.354 µM and 0.0544 µM | TGI [50]: 1.18 µM and 4.27 µM | GI50 [51]: 0.992 µM and 2.86 µM | TGI [51]: 5.17 µM and 7.61 µM | TGI [52]: 2.15 µM and 1.9 µM | GI50 [53]: 1.03 µM and 2.1 µM | TGI [53]: 7.25 µM and 10.3 µM | GI50 [54]: 0.112 µM and 0.288 µM | TGI [54]: 0.643 µM and 0.924 µM | TGI [55]: 1.1 µM and 1.72 µM
